Assay results as given in US9260391B2, “Hypoglycemic dihydropyridones” (The Trustees of Columbia University in the City of New York, priority 2008, dated 2016).
“Also recorded” adds a separate entry of the source.

What was measured:
[1] = test system: Lewis rats; assay: IPGTT of analogs HG-1 to HG-11, compounds given orally (FIG. 15); type: in vivo, rat; settings: 2 mg/kg orally
Protocol: FIG. 15 is a bar graph showing the results of testing various analogs HG-1 to HG-11 in IPGTT glucose tolerance tests in rats. Results for TBZ, emetine, and olanzapine are also shown. Lewis rats fasted for 6 hours were administered the compounds orally (30 min, 2 mg/kg) followed by intraperitoneal glucose injection (0 min, […]), and plasma glucose levels were monitored for 120 mins. Results are presented as AUC percentage of the vehicle. Error bars indicate SEM (n=5).
Racemic HG-2 and its diastereoisomer HG-1 were evaluated for their ability to improve glucose tolerance by performing intraperitoneal glucose tolerance tests (IPGTT) in rats. IPGTT testing is described above. See also Murthy, R., et al., Eur. J. Nucl. Med. Mol. Imaging, 2008, 35(4), 790-797.

[2] = biological target: T1, VMAT2 in beta cells (Rattus norvegicus, UniProt Q01827); assay: PET study: displacement of [11C]DTBZ in the pancreas by cold analog; type: in vivo; settings: cold compound 2 mg/kg injected 30 min after radioligand; relative to DTBZ
T1 construct: from tissue; host or cells: pancreas (beta cells) of living Lewis rats
T1 sequence (Q01827 whole entry): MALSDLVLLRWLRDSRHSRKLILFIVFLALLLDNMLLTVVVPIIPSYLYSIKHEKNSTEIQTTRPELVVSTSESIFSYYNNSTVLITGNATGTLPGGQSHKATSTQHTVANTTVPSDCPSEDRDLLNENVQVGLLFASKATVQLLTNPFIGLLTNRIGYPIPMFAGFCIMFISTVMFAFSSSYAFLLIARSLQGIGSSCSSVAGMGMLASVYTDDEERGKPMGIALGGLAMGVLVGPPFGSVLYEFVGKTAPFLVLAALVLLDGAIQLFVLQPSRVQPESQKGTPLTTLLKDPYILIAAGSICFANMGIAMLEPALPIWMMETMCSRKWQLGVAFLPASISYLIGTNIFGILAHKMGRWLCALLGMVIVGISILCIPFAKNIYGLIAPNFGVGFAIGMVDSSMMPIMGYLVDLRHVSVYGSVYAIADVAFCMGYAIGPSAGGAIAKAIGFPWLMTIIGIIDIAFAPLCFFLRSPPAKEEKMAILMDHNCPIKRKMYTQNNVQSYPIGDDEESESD
Protocol: PET scans were performed on anesthetized 12-14 week old Lewis male rats injected with radioligand [^11C]DTBZ (0 min, 0.5-1.0 μCi/gm body weight, specific activity >[…]) and cold compound 8 (HG-3) (30 mins, 2 mg/kg). The fraction of radioligand in the pancreas relative to the total amount injected was calculated and plotted versus time after injection. Error bars indicate SEM (n=3).
To test binding to VMAT2 in beta cells, PET scans were performed on 12-14 week old Lewis Male rats. Prior to imaging, the animals were anesthetized by isoflurane inhalation. After a transmission scan of the area of interest had been acquired (used to perform attenuation correction of the emission data), the radioligand [11C]DTBZ was administered (0.5-1.0 μCi/gm) in saline as bolus injection via the penile vein. PET scans of the animals were acquired dynamically to 90 min post injection on a Concorde microPET-R4 (CTI Molecular Imaging, Knoxville, Tenn., USA). The scanner provided a 100×80 mm field of view with a reconstructed resolution of 2.25 mm in the central 40 mm of the field of view. At thirty minutes post injection of [11C]DTBZ, the animals received a second injection via the penile vein of cold analog. […]

[3] = biological target: T2, dipeptidyl peptidase IV (DDP-IV) (Homo sapiens, UniProt P27487); assay: Effect on dipeptidyl peptidase IV in vitro (BPS Bioscience assays); type: biochemical; settings: concentrations up to 10 μM; data not shown
T2 construct: purchased BPS Bioscience, Inc. (San Diego, Calif.)
T2 sequence (P27487 whole entry): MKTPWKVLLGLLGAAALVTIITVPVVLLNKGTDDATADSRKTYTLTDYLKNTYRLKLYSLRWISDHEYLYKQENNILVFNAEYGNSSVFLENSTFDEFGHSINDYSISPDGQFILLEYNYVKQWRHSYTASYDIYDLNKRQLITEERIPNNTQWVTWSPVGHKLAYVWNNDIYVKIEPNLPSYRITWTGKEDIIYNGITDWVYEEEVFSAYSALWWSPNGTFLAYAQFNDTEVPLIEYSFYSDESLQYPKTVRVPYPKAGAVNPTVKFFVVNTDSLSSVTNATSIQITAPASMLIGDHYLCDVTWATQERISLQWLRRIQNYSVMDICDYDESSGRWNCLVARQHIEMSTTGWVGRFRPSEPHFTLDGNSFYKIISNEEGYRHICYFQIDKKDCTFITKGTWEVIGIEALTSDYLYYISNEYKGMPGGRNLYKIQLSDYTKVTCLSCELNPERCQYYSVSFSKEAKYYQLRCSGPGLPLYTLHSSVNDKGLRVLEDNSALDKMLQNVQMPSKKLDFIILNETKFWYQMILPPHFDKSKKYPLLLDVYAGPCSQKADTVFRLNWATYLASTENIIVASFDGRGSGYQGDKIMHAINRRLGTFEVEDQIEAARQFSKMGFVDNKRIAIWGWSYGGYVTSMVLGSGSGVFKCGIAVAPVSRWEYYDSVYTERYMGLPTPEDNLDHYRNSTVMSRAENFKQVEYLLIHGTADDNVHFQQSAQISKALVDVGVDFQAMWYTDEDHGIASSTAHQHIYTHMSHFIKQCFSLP
Protocol: The effect of HG-3 on DDP-IV was determined by assays provided by BPS Bioscience, Inc. (San Diego, Calif.).

[4] = test system: human islets; assay: Glucose-stimulated insulin secretion of purified human cadaveric islets ex vivo; type: cell-based; settings: high glucose media; ELISA
Protocol: The islet tissue used in these studies was obtained with institutional review board approval. Pancreas digestion and islet isolation were performed using minor modifications of the Edmonton purification protocol. (Shapiro, […] al. “Islet […] in seven patients with type I diabetes mellitus using a glucocortoid-free immunosuppressive regimen.” New England Journal of Medicine 343(4):230-8, (2000)) The determination of islet cell mass, viability, and purity were also performed. Purified islets were cultured in CMRL 1066 culture media with 10% fetal bovine serum at 37° C. in humidified air (5% CO2) for 18 to 24 hours. The human islet insulin secretory response was performed according to a procedure described by the Edmonton group. (Id.) Briefly, after an overnight culture, islets were incubated with either low or high concentrations of glucose for 2 hours at 37° C. and 5% CO2. The supernatant was collected for insulin measurement. Insulin concentrations in these experiments were analyzed with a human insulin enzyme-linked immunosorbent assay (ELISA) kit (ALPCO Insulin ELISA kit, Windham, N.H.). In some experiments TBZ, DTBZ or epinephrine was added to the cultures before glucose stimulation.

Compound | decrease of the AUC IPGTT (area under the blood glucose concentration-time curve) ([1]; 30 min before i.p. glucose, relative to vehicle, n=5) | hypoglycemic activity in IPGTT compared with TBZ / HG-3 ([1]; FIG. 15) | displacement of [11C]DTBZ in the endocrine pancreas / binding to VMAT2 [2] | effect on DDP-IV in vitro [3] | insulin secretion by human islets after stimulation by high concentrations of glucose [4]
COc1ccc(C2CC(OCC(C)C)=CC(=O)N2)cc1OC (stereo not shown) [HG-3, 6-(3,4-dimethoxyphenyl)-4-isobutoxy-5,6-dihydropyridin-2(1H)-one] | 45% | potent hypoglycemic effect; also recorded: significant decrease in blood glucose levels as compared to TBZ | did not significantly displace | negative | 
CNC[C@H](O)c1ccc(O)c(O)c1 [epinephrine, L-epinephrine bitartrate] |  |  |  |  | inhibited secretion of insulin
COc1cc2c(cc1OC)[C@@H]1C[C@H](O)[C@@H](CC(C)C)CN1CC2 [DTBZ, dihydrotetrabenazine] |  |  |  |  | significantly enhanced the amount of insulin secreted; also recorded: enhances glucose-stimulated insulin secretion
COc1ccc(C2CC(O)C(CC(C)C)C(=O)N2)cc1OC (stereo not shown) [HG-4] |  |  | weak binding |  | 
